Measurements: article PMC10648349, “Aromatic Diboronic Acids as Effective KPC/AmpC Inhibitors” (Molecules, 2023)
In brackets after ≈: the same amount, converted by molar mass. Read-outs that look alike come from different tables or passages of the source.

Legend:
[1] = MTT-based viability assay; assay type: cell-based; conditions: human, 72 h, read-out: Viability of MRC-5 cells (% of viable cells ± SD)
Method: MRC-5 human fibroblasts (ECACC) were cultured in MEME, Minimum Essential Medium Eagle (Merck) supplemented with 10% fetal bovine serum (Merck), 2 mM l-glutamine, antibiotics (100 U/mL penicillin, 100 μg/mL streptomycin, Merck) and 1% non-essential amino acids (Merck). Cells were grown in 75 cm^2 cell culture flasks (Sarstedt) in a humidified atmosphere of CO2/air (5/95%) at 37 °C. MTT-based viability assay was conducted as described previously. Optical densities were measured at 570 nm using a BioTek microplate reader. All measurements were carried out in three replicates, and the results were expressed as a percent of viable cells versus control cells.

[2] = test system: C. albicans ATCC 90028; test: antifungal activity (disc-diffusion, MIC, MFC); assay type: cell-based; conditions: Candida albicans, ATCC90028; fluconazole by Etest
Method: (§1) Direct antimicrobial activity against Gram-negative and Gram-positive bacterial strains, as well as against yeast, was examined as previously described by the disc-diffusion test, the MIC determination assay, the MBC (for bacteria), and the MFC (for yeasts) determination tests. All the above-mentioned tests were performed according to EUCAST [71, 72] and CLSI [73, 74, 75, 76, 77] recommendations. The following reference agents were used: nitrofurantoin (for Gram-negative rods), linezolid (for Gram-positive bacteria), and fluconazole (in the case of fungi). The new aromatic diboronic acids were dissolved in DMSO (Sigma, St. Louis, MO, USA). In the disc-diffusion test, the concentration of new agents was 0.4 mg per disc.

[3] = test system: C. tropicalis ATCC 750; test: antifungal activity (disc-diffusion, MIC, MFC); assay type: cell-based; conditions: Candida tropicalis, ATCC750; fluconazole by Etest
Method: as §1

[4] = test system: C. tropicalis IBA 171; test: antifungal activity (disc-diffusion, MIC, MFC); assay type: cell-based; conditions: Candida tropicalis, IBA171; fluconazole by Etest
Method: as §1

[5] = test system: S. cerevisiae ATCC 9763; test: antifungal activity (disc-diffusion, MIC, MFC); assay type: cell-based; conditions: Saccharomyces cerevisiae, ATCC9763; fluconazole by Etest
Method: as §1

[6] = test system: C. krusei ATCC 6258; test: antifungal activity (disc-diffusion, MIC, MFC); assay type: cell-based, Candida krusei; conditions: Pichia kudriavzevii, ATCC6258; fluconazole by Etest
Method: as §1

[7] = test system: C. guilliermondii IBA 155; test: antifungal activity (disc-diffusion, MIC, MFC); assay type: cell-based, Candida guilliermondii; conditions: Meyerozyma guilliermondii, IBA155; fluconazole by Etest
Method: as §1

[8] = test system: C. parapsilosis ATCC 22019; test: antifungal activity (disc-diffusion, MIC, MFC); assay type: cell-based, Candida parapsilosis; conditions: Lodderomyces parapsilosis, ATCC22019; fluconazole by Etest
Method: as §1

[9] = test system: B. subtilis ATCC 6633; test: direct antimicrobial activity (disc-diffusion); assay type: cell-based; conditions: Bacillus subtilis, ATCC6633; 0.4 mg per disc, 9 mm disc (linezolid 0.03 mg, 6 mm disc); - no zone; read-out: Diameter of inhibition zone
Method: as §1

[10] = test system: S. aureus ATCC 43300 MRSA; test: direct antimicrobial activity (disc-diffusion, MIC, MBC); assay type: cell-based; conditions: Staphylococcus aureus; for zone of inhibition at 0.4 mg/disc: 0.4 mg per disc, 9 mm disc (linezolid 0.03 mg, 6 mm disc), - no zone, read-out: Diameter of inhibition zone
Method: as §1

[11] = test system: S. epidermidis ATCC 12228; test: as above; assay type: cell-based; conditions: Staphylococcus epidermidis, ATCC12228
Method: as §1

[12] = test system: E. faecalis ATCC 29212; test: as above; assay type: cell-based; conditions: Enterococcus faecalis, ATCC29212
Method: as §1

[13] = test system: S. aureus ATCC 6538P; test: as above; assay type: cell-based; conditions: Staphylococcus aureus, ATCC6538P; for zone of inhibition at 0.4 mg/disc: 0.4 mg per disc, 9 mm disc (linezolid 0.03 mg, 6 mm disc), - no zone, read-out: Diameter of inhibition zone
Method: as §1

[14] = test system: E. faecium ATCC 6057; test: as above; assay type: cell-based; conditions: Enterococcus faecium, ATCC6057
Method: as §1

[15] = test system: K. pneumoniae ATCC BAA 1705 KPC-2-positive; test: combination disc test CDT-KPC; assay type: cell-based; conditions: Klebsiella pneumoniae, BAA1705; agent 0.3 mg per disc; read-out: Diameter of inhibition zone, MEM-10 disc with agent
[16] = test system: P. aeruginosa MUW 700 cAmpC-positive; test: combination disc test CDT-AmpC; assay type: cell-based; conditions: Pseudomonas aeruginosa; agent 0.3 mg per disc; read-out: Diameter of inhibition zone, CAZ-30 disc with agent
[17] = test system: E. coli 77 CMY-2-positive; test: combination disc test CDT-AmpC; assay type: cell-based; conditions: Escherichia coli; agent 0.3 mg per disc; read-out: Diameter of inhibition zone, CAZ-30 disc with agent
[18] = test system: K. pneumoniae ATCC 700603 ESBL-positive; test: combination disc test CDT-ESBL; assay type: cell-based; conditions: Klebsiella pneumoniae, ATCC700603; agent 0.3 mg per disc; read-out: Diameter of inhibition zone, CAZ-30 disc with agent
[19] = test system: P. aeruginosa MUW 700 AmpC(+); test: MIC of tested agent alone, microdilution; assay type: cell-based; conditions: Pseudomonas aeruginosa; read-out: MIC of agent alone
Method: (§2) To examine the ability of tested agents to inhibit various carbapenemases and AmpC-enzymes, their synergy with antibiotics against β-lactamase-producing strains was assessed by checkerboard microdilution assay, with slight modification. Checkerboards were prepared in microtiter plates, with seven two-fold dilutions of β-lactams (1–64 mg/L) in the rows and three two-fold dilutions of tested agents and PBA (4–16 mg/L) in the columns. Tested agents’ concentrations were limited to the concentrations at which the newest commercially available BLIs (vaborbactam, relebactam, and avibactam) are used in susceptibility testing. Plates were inoculated and incubated as in the MIC microdilution assay. Parallel, MICs of tested agents and PBA alone were determined by the microdilution assay. Following the incubation, antibiotic MICs in the presence of each agent’s concentration were determined. Moreover, for the first well without growth found in each checkerboard row and column along the growth/non-growth interface, the fractional inhibitory concentration index (FICI) was calculated using the formula below:FICI = [(MIC of antibiotic in combination)/(MIC of antibiotic alone)] + [(MIC of the tested agent in combination)/(MIC of tested agent alone)].

[20] = test system: E. coli 77 CMY-2(+); test: MIC of tested agent alone, microdilution; assay type: cell-based; conditions: Escherichia coli; read-out: MIC of agent alone
Method: as §2

[21] = test system: K. pneumoniae 83 KPC-3(+), CTX-M-3(+); test: MIC of tested agent alone, microdilution; assay type: cell-based; conditions: Klebsiella pneumoniae; read-out: MIC of agent alone
Method: as §2

[22] = test system: K. pneumoniae 81 KPC-3(+); test: MIC of tested agent alone, microdilution; assay type: cell-based; conditions: Klebsiella pneumoniae; read-out: MIC of agent alone
Method: as §2

[23] = test system: K. pneumoniae ATCC BAA-1705 KPC-2(+); test: MIC of tested agent alone, microdilution; assay type: cell-based; conditions: Klebsiella pneumoniae, ATCCBAA1705; read-out: MIC of agent alone
Method: as §2

[24] = test system: E. coli 76 KPC-2(+); test: MIC of tested agent alone, microdilution; assay type: cell-based; conditions: Escherichia coli; read-out: MIC of agent alone
Method: as §2

MIC [2]	MIC [3]	MIC [4]	MIC [5]	MIC [6]	MIC [7]	MIC [8]	MIC [10]	MIC [11]	MIC [12]	MIC [13]	MIC [14]	Structure (SMILES)	viability at 72 h, 12.5 mg/L ([1]; MRC-5 human fibroblasts)	viability at 72 h, 25 mg/L ([1]; MRC-5 human fibroblasts)	viability at 72 h, 50 mg/L ([1]; MRC-5 human fibroblasts)	zone of inhibition at 0.4 mg/disc [9]	zone of inhibition at 0.4 mg/disc [10]	zone of inhibition at 0.4 mg/disc [13]	other results
> 400 µg/mL	> 400 µg/mL	> 400 µg/mL	> 400 µg/mL	> 400 µg/mL	> 400 µg/mL	> 400 µg/mL	400 µg/mL (≈ 1330 µM)	200 µg/mL (≈ 663 µM)	400 µg/mL (≈ 1330 µM)	400 µg/mL (≈ 1330 µM)	400 µg/mL (≈ 1330 µM)	OB(O)c1cc(C(F)(F)F)c(B(O)O)cc1C(F)(F)F [1h]	101 ± 4.3%	104 ± 5%	98.8 ± 3.2%	12 mm	14 mm	13 mm	
> 400 µg/mL	> 400 µg/mL	> 400 µg/mL	200 µg/mL (≈ 818 µM)	400 µg/mL (≈ 1640 µM)	> 400 µg/mL	> 400 µg/mL	200 µg/mL (≈ 818 µM)	100 µg/mL (≈ 409 µM)	> 400 µg/mL	50 µg/mL (≈ 204 µM)	200 µg/mL (≈ 818 µM)	OB(O)c1ccc(Br)c(B(O)O)c1 [2f]	103 ± 8.8%	92.1 ± 0.9%	76.2 ± 0.7%	22 mm	13 mm	14 mm	zone of inhibition at 300 µg/disc [15]: 6 mm; zone of inhibition at 300 µg/disc [16]: 21 mm; zone of inhibition at 300 µg/disc [17]: 19 mm; zone of inhibition at 300 µg/disc [18]: 15 mm; MIC [19]: > 400 µg/mL; MIC [20]: > 400 µg/mL; MIC [21]: > 400 µg/mL; MIC [22]: > 400 µg/mL; MIC [23]: > 400 µg/mL; MIC [24]: > 400 µg/mL; zone of inhibition at 0.4 mg/disc ([11]; 0.4 mg per disc, 9 mm disc (linezolid 0.03 mg, 6 mm disc), - no zone, read-out: Diameter of inhibition zone): 25 mm; MBC [13]: 400 µg/mL (≈ 1640 µM)

Structure (SMILES)	MIC [2]	MIC [3]	MIC [4]	MIC [5]	MIC [6]	MIC [7]	MIC [8]	MIC [10]	MIC [11]	MIC [12]	MIC [13]	MIC [14]	viability at 72 h, 12.5 mg/L ([1]; MRC-5 human fibroblasts)	viability at 72 h, 25 mg/L ([1]; MRC-5 human fibroblasts)	viability at 72 h, 50 mg/L ([1]; MRC-5 human fibroblasts)	zone of inhibition at 0.4 mg/disc [9]	zone of inhibition at 0.4 mg/disc [10]	zone of inhibition at 0.4 mg/disc [13]	other results
C[Si](C)(C)c1cc(B(O)O)c([Si](C)(C)C)cc1B(O)O [1k]	> 100 µg/mL	> 100 µg/mL	> 100 µg/mL	> 100 µg/mL	> 100 µg/mL	> 100 µg/mL	> 100 µg/mL	100 µg/mL (≈ 322 µM)	100 µg/mL (≈ 322 µM)	> 100 µg/mL	100 µg/mL (≈ 322 µM)	100 µg/mL (≈ 322 µM)				11 mm			viability at 72 h, 12.5 mg/L [1]: 84.3 ± 0.9%; viability at 72 h, 25 mg/L [1]: 74.2 ± 3.5%; viability at 72 h, 50 mg/L [1]: 28.9 ± 1%
